Literature values in patent US20250178999A1, “ONE STEP SYNTHESIS OF 1-TETRALONE COMPOUNDS AND USES THEREOF IN THE PREPARATION OF (+)-TETRALONE ABSCISIC ACID (ABA)” (University of Saskatchewan, priority 2022, published 2025).
Where two headings read alike, the source gives them in different places.

Experiments:
[1] = test system: ABA receptors; settings: wheat receptors; Vaidya et al 2019
[2] = test system: ABA receptors; settings: Arabidopsis receptors; Vaidya et al 2019
[3] = test system: Arabidopsis; settings: for IC50: Vaidya et al 2019, read-out: IC50 in germination of Arabidopsis
[4] = test system: lettuce; settings: Han et al 2015
[5] = test system: rice seedling; settings: Han et al 2015
[6] = Nyangulu et al 2006
[7] = test system: corn cell suspension system; settings: Nyangulu et al 2006
[8] = test system: corn cell; settings: Nyangulu et al 2006

Compound | relative potency of 7 and (+)-5 by receptor subgroup [1] | relative potency of 7 and (+)-5 by receptor subgroup [2] | IC50 [3] [nM] | further results
N#Cc1c(C2CC2)cc(CC(=O)NC2(C(=O)O)CCCCC2)cc1C1CC1 [Compound 7, opabactin, reference compound] | more the active in subgroup III | more the active in subgroup III | 62 | 
CC(=C/C(=O)O)/C=C/C1(O)c2ccccc2C(=O)CC1(C)C (racemic) [(±)-5] |  |  |  | activity in seed germination assay in lettuce compared to racemic ABA [4]: higher activity than racemic ABA; activity in rice seedling growth inhibition assay compared to racemic ABA [5]: higher activity than racemic ABA; activity in seed germination assay in arabidopsis compared to racemic ABA ([3]; Han et al 2015): higher activity than racemic ABA
CC(=C/C(=O)O)/C=C/[C@@]1(O)c2ccccc2C(=O)C[C@]1(C)CO [Compound 8] |  |  |  | biological activity [6]: retain biological activity; metabolic fate in corn cell suspension system [7]: not converted to a phaseic acid-like compound
CC1=CC(=O)CC(C)(C)[C@@]1(O)/C=C/C(C)=C\C(=O)O [(+)-1, (2Z,4E)-5-[(1S)-1-hydroxy-2,6,6-trimethyl-4-oxocyclohex-2-en-1-yl]-3-methylpenta-2,4-dienoic acid, reference compound] |  |  | 601 | 
CC(=C/C(=O)O)/C=C/[C@@]1(O)c2ccccc2C(=O)CC1(C)C [(+)-5, (2Z,4E)-5-((S)-1-hydroxy-2,2-dimethyl-4-oxo-1,2,3,4-tetrahydronaphthalen-1-yl)-3-methylpenta-2,4-dienoic acid] | more potent in subgroup II | more potent in subgroup II | 194 | activity in corn cell growth inhibition assay compared to ABA [8]: higher activity than ABA; activity in seed germination inhibition assay in Arabidopsis compared to ABA ([3]; Nyangulu et al 2006): higher activity than ABA
